According to US9663561B2, “Methods of treatment of cancer using SRC-modulating peptides” (The University of Toledo, priority 2006, dated 2017):

How the values were obtained:
[1] = target: T1, Na+/K+-ATPase/Src complex (Sus scrofa, UniProt P05024); assay: Src pY418 phosphorylation of the Na+/K+-ATPase/Src complex (Western blot); format: biochemical
T1 construct: Na+/K+-ATPase was purified from pig kidney outer medulla using the Jorgensen method; tissue Upstate Biotechnology (Src only); host or cells: pig kidney outer medulla (Na+/K+-ATPase)
Experimental: (§1) The Src kinase activity was assayed using a commercial kit (Haas et al., 2000). To determine how Na+/K+-ATPase affects Src kinase activity, the purified Src (4.5 U) was incubated with 5 μg of the purified Na+/K+-ATPase in the Src assay buffer for 30 min at room temperature. Afterward, both control Src or the Na+/K+-ATPase-bound Src were exposed to 10 μM ouabain and Src kinase activity was determined. In other experiments, the Src pY418 was measured by anti-pY418 antibody to indicate Src activation (Ma et al., 2000). To do so, the purified Src (4.5 U) was incubated with different amounts of the purified Na+/K+-ATPase or GST-Na+/K+ATPase constructs in phosphate-buffered saline (PBS) for 30 min at 37° C. Afterward, 2 mM ATP/Mg2+ was added. The reaction continued for 5 min at 37° C. and was stopped by addition of SDS sample buffer.
The purified Na+/K+-ATPase was solubilized in 1% Triton X-100 PBS and centrifuged at 100,000×g for 30 min. The supernatant was collected for the binding assay. GST-fusion proteins (5 μg) were conjugated on glutathione beads and incubated with the solubilized Na+/K+-ATPase in 500 μl PBS in the presence of 0.5% Triton X-100 at room temperature for 30 min. The beads were washed with the same buffer for four times. The bound Na+/K+ATPase was resolved on 10% SDS-PAGE and detected by Western blot. Reciprocal binding assay using GST-Na+/K+-ATPase constructs (5 μg) and purified Src lacking of first 85 amino acids (200 ng) or His-tagged Src constructs (100 ng) was done similarly. To test if native Na+/K+-ATPase binds Src, the above experiments were repeated in the absence of Triton X-100. To make the Na+/K+-ATPase/Src complex, 2-5 μg of the purified Na+/K+ATPase was incubated with 4.5 U of Src (˜10 ng) in PBS in the absence of Triton X-100 at room temperature for 30 min. The complex was either used for the experiments directly as indicated or collected by centrifugation at 100,000×g for 30 min.

[2] = test system: Src and ERKs; conditions: cultured cells and animal models; cited from earlier work
[3] = target: T2, GFP-canine α1 and Src-Rluc in 293T cells (Canis lupus familiaris, UniProt P50997); assay: BRET analysis; format: cell-based, human
T2 construct: expressed in transfected cells; host or cells: 293T (human embryo kidney)
Experimental: BRET assay was done as described by Lowry et al. (2002). Briefly, 24 h after transfection with GFP-Na+/K+-ATPase and Src-Rluc or other constructs as indicated, cells were seeded in triplicate in a 96-well microplate. After treatment with indicated concentration of ouabain, cells were exposed to equal volume of BRET analysis buffer containing 10 μM DeepBlue C, the substrate of Rluc. The emission at 410 nm (for Rluc) and 515 nm (for GFP) was immediately acquired using a Fluoroskan Ascent FL (Labsystems, Franklin, Mass.) with microplate luminometric detection. The BRET ratio was calculated as follows: (Emission at 515 nm−Background at 515 nm)/(Emission at 410 nm−Background at 410 nm), where Background signal was assessed in each experiment by measuring the signal of a sample of nontransfected cells.

[4] = target: T3, purified pig kidney Na+/K+-ATPase (Sus scrofa, UniProt P05024); assay: ATPase activity of purified pig kidney Na+/K+-ATPase; format: biochemical; conditions: 10 μM ouabain
T3 construct: Na+/K+-ATPase was purified from pig kidney outer medulla using the Jorgensen method; from tissue; host or cells: pig kidney outer medulla
From the text: Src, without the first 85 amino acid residues, was purified from sf-9 cells as described (Ma et al., 2000) and used in the initial binding assays to ensure that Src binds to the Na+/K+-ATPase, but not the lipid composition in the purified Na+/K+-ATPase preparation. In subsequent experiments (e.g., phosphorylation and activity assays), purified recombinant full-length Src from Upstate Biotechnology was used. Na+/K+-ATPase was purified from pig kidney outer medulla using the Jorgensen method (Xie et al., 1996) and the preparations with specific activities between 1200 and 1400 μmol Pi/mg/h were used.
GST fusion proteins or His-tagged proteins were expressed in Escherichia coli BL21 and purified on glutathione beads or nickel column.

[5] = test system: Na+/K+-ATPase/Src complex; assay: Effect of ouabain on binding of GST-Src constructs to Na+/K+-ATPase; conditions: 10 μM ouabain, 15 min
Experimental: FIG. 7C. A representative Western blot of four separate experiments showing that ouabain induced the release of the kinase domain from the Na+/K+-ATPase. […] Complexes were then pulled down on glutathione beads, washed three times, resuspended in 500 μl PBS, and exposed to 10 μM ouabain for 15 min. The beads were then washed for three more times using PBS, and the pulled down Na+/K+-ATPase was analyzed by Western blot using anti-α1 antibody
Because the inventors have shown that multiple domains are involved in Src interaction with the Na+/K+ATPase, the above findings led us to test if ouabain dissociates only a single (kinase) domain from the interacting Na+/K+-ATPase. […] Afterward, the complexes were exposed to 10 μM ouabain.

[6] = test system: Na+/K+-ATPase; assay: Na+/K+-ATPase activity assay in cell lysates; format: biochemical, pig; conditions: 10 μM ouabain, PY-17 and P-11 cells
Experimental: Na+/K+-ATPase enzymatic activity was determined Briefly, cells were collected from the cultures in Tris-EGTA buffer (pH 7.2) and briefly sonicated. The cell lysates were then treated with alamethicin at a concentration of 0.1 mg/mg of protein for 30 min at room temperature. ATPase activity was measured by the determination of the initial release of 32P from [,y-32P]ATP, and the reaction was carried out in a reaction mixture (1 ml) containing 100 mM NaCl, 25 mM KCl, 3 mM MgCl2, 1 mM EGTA, 2 mM ATP, 5 mM NaN3, and 50 mM Tris-HCl (pH 7.4). Na+/K+-ATPase activity was calculated as the difference between the activities measured in the absence of ouabain and in the presence of 1 mM ouabain. To determine the ouabain concentration curve, the alamethicin-treated cell lysates were preincubated with different concentrations of ouabain for 15 min before ATP was added to start the reaction.

[7] = target: T1, Na+/K+-ATPase/Src complex; assay: Src kinase activity (commercial kit) of Na+/K+-ATPase-bound Src; format: biochemical; conditions: 10 μM ouabain
Experimental: as §1

[8] = 10 μM ouabain 15 min before centrifugation

Question: Which results are given for `C[C@@H]1O[C@@H](O[C@H]2C[C@@H](O)[C@]3(CO)[C@H]4[C@H](O)C[C@]5(C)[C@@H](C6=CC(=O)OC6)CC[C@]5(O)[C@@H]4CC[C@]3(O)C2)[C@H](O)[C@H](O)[C@H]1O` [ouabain]?
Answer: Src pY418 of cosedimented complex [1, 8]: increased the amount of Src pY418; total Src cosedimented with the Na+/K+-ATPase [1, 8]: no effect on total Src cosedimented; Src pY418 of Na+/K+-ATPase/Src complex ([1]; different concentrations of ouabain, 2 mM ATP/Mg2+, 5 min): significantly increased the pY418 in a dose-dependent manner; Src pY418 of Na+/K+-ATPase/Src complex ([1]; ouabain in the presence of vanadate): still able to stimulate pY418 of Src; physiological concentrations able to activate Src and ERKs [2]: 0.1-1 nM; ouabain concentration at which significant decrease in BRET ratio was detected [3]: 10 nM; BRET ratio ([3]; different concentrations of ouabain): dose-dependent decrease in the BRET ratio; inhibition of the ATPase activity [4]: complete inhibition; binding of Src kinase domain to the Na+/K+-ATPase [5]: dissociated the kinase domain; binding of full-length Src or SH3SH2 domain to the Na+/K+-ATPase [5]: no effect on the binding of either full-length Src or the SH3SH2 domain; inhibition of the Na+/K+-ATPase in cell lysates [6]: complete inhibition; Src kinase activity of Na+/K+-ATPase-bound Src [7]: restored the kinase activity
